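Assay format: 96-well plates, 48-hour exposure. GI50: concentration for 50% inhibition of growth.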 The source made the active and inactive calls. Rule as the data show it: active = GI50 up to about 1.1 µM and inactive = higher. Starred links: 1 amine or outer side, 2 acyl side, 3 side chain; linkers in the order of their positions; H or OH if unused. Positions of bridges follow the written chain, without caps; N, C: chain ends. Non-standard residues stand in square brackets, D forms with d. Residues, ends and D or L forms follow the SMILES beside them. *: point of attachment. X40 = CC[C@H](C)[C@@H](N[*:1])[C@@H](O)CC(=O)[*:2]; NMeY = CN[C@@H](Cc1ccc(O)cc1)C(=O)O; dNMeL = CN[C@H](CC(C)C)C(=O)O; Hiv = CC(C)[C@H](O)C(=O)O; Pyruvoyl = CC(=O)C(=O)*
How the values were obtained:
Experiment in all cases: inhibition of tumour cell growth, NCI panel, 48 h
SK-OV-3 = system: SK-OV-3
HL-60 = system: HL-60
HCT-116 = system: HCT-116
IGROV-1 = system: IGROV-1
OVCAR-4 = system: OVCAR-4
NCI-H23 = system: NCI-H23
EKVX = system: EKVX
M14 = system: M14
SNB-19 = system: SNB-19
UO-31 = system: UO-31
K562 = system: K562
A549 = system: A549
UACC-62 = system: UACC-62
MDA-N = system: MDA-N
A498 = system: A498
HCC 2998 = system: HCC 2998
MDA-MB-435 = system: MDA-MB-435
KM12 = system: KM12
SK-MEL-5 = system: SK-MEL-5
DU-145 = system: DU-145
SF-268 = system: SF-268
NCI/ADR-RES = system: NCI/ADR-RES
NCI-H522 = system: NCI-H522
SW-620 = system: SW-620
NCI-H226 = system: NCI-H226
Malme-3M = system: Malme-3M
SF-539 = system: SF-539
SK-MEL-2 = system: SK-MEL-2
MCF7 = system: MCF7
OVCAR-5 = system: OVCAR-5
MDA-MB-231 = system: MDA-MB-231
BT-549 = system: BT-549
CCRF-CEM = system: CCRF-CEM
HT-29 = system: HT-29
UACC-257 = system: UACC-257
Hs-578T = system: Hs-578T
HOP-62 = system: HOP-62
SK-MEL-28 = system: SK-MEL-28
NCI-H460 = system: NCI-H460
ACHN = system: ACHN
U-251 = system: U-251
SF-295 = system: SF-295
SN12C = system: SN12C
LOX IMVI = system: LOX IMVI
CAKI-1 = system: CAKI-1
MOLT-4 = system: MOLT-4
COLO 205 = system: COLO 205
TK-10 = system: TK-10
RXF 393 = system: RXF 393
786-0 = system: 786-0
PC-3 = system: PC-3
SNB-75 = system: SNB-75
OVCAR-3 = system: OVCAR-3
OVCAR-8 = system: OVCAR-8
RPMI-8226 = system: RPMI-8226
HOP-92 = system: HOP-92
HCT-15 = system: HCT-15
T47D = system: T47D
SR = system: SR

## Cc1nn2c(=O)c([N+](=O)[O-])c(/C=C/c3ccc(F)cc3)nc2s1
SK-OV-3
  GI50: 12.6 µM (inactive)
HL-60
  GI50: 3.95 µM (inactive)
HCT-116
  GI50: 6.41 µM (inactive)
IGROV-1
  GI50: 10.5 µM (inactive)
OVCAR-4
  GI50: 11 µM (inactive)
NCI-H23
  GI50: 15.2 µM (inactive)
EKVX
  GI50: 5.64 µM (inactive)
M14
  GI50: 11.3 µM (inactive)
SNB-19
  GI50: 10.8 µM (inactive)
UO-31
  GI50: 8.75 µM (inactive)
K562
  GI50: 5.69 µM (inactive)
A549
  GI50: 9.06 µM (inactive)
UACC-62
  GI50: 11.3 µM (inactive)
MDA-N
  GI50: 5.96 µM (inactive)
A498
  GI50: 16.3 µM (inactive)
HCC 2998
  GI50: 11.4 µM (inactive)
MDA-MB-435
  GI50: 4.33 µM (inactive)
KM12
  GI50: 7.24 µM (inactive)
SK-MEL-5
  GI50: 7.94 µM (inactive)
DU-145
  GI50: 16.2 µM (inactive)
SF-268
  GI50: 8.87 µM (inactive)
NCI/ADR-RES
  GI50: 9.77 µM (inactive)
NCI-H522
  GI50: 8.49 µM (inactive)
SW-620
  GI50: 11.5 µM (inactive)
NCI-H226
  GI50: 11.4 µM (inactive)
Malme-3M
  GI50: 11.6 µM (inactive)
SF-539
  GI50: 8.55 µM (inactive)
SK-MEL-2
  GI50: 9.91 µM (inactive)
MCF7
  GI50: 3.4 µM (inactive)
OVCAR-5
  GI50: 9.89 µM (inactive)
MDA-MB-231
  GI50: 13.9 µM (inactive)
BT-549
  GI50: 5.12 µM (inactive)
CCRF-CEM
  GI50: 4.47 µM (inactive)
HT-29
  GI50: 6.52 µM (inactive)
UACC-257
  GI50: 10.9 µM (inactive)
Hs-578T
  GI50: 11.2 µM (inactive)
HOP-62
  GI50: 15 µM (inactive)
SK-MEL-28
  GI50: 12.9 µM (inactive)
NCI-H460
  GI50: 8.34 µM (inactive)
ACHN
  GI50: 11.5 µM (inactive)
U-251
  GI50: 4.84 µM (inactive)
SF-295
  GI50: 11.8 µM (inactive)
SN12C
  GI50: 11.6 µM (inactive)
LOX IMVI
  GI50: 2.79 µM (inactive)
CAKI-1
  GI50: 8.67 µM (inactive)
MOLT-4
  GI50: 10.1 µM (inactive)
COLO 205
  GI50: 12.1 µM (inactive)
TK-10
  GI50: 14.1 µM (inactive)
RXF 393
  GI50: 4.42 µM (inactive)
786-0
  GI50: 10.9 µM (inactive)
PC-3
  GI50: 9.42 µM (inactive)
SNB-75
  GI50: 9.27 µM (inactive)
OVCAR-3
  GI50: 4.28 µM (inactive)
OVCAR-8
  GI50: 6.07 µM (inactive)
RPMI-8226
  GI50: 3.51 µM (inactive)
HOP-92
  GI50: 15.5 µM (inactive)
HCT-15
  GI50: 7.5 µM
T47D
  GI50: 4.03 µM (inactive)
SR
  GI50: 3.8 µM (inactive)

## C#CC1(O)CCC2[C@@H]3CCc4cc(Oc5nc(F)nc(-c6c(C)c(C(=O)OCC)n7ccccc67)n5)ccc4C3CC[C@@]21C (some centres not stated)
SK-OV-3
  GI50: > 100 µM (inactive)
HL-60
  GI50: > 100 µM (inactive)
HCT-116
  GI50: > 100 µM (inactive)
IGROV-1
  GI50: > 100 µM (inactive)
OVCAR-4
  GI50: > 100 µM (inactive)
NCI-H23
  GI50: > 100 µM (inactive)
EKVX
  GI50: > 100 µM (inactive)
M14
  GI50: > 100 µM (inactive)
SNB-19
  GI50: > 100 µM (inactive)
UO-31
  GI50: > 100 µM (inactive)
K562
  GI50: 29.6 µM (inactive)
A549
  GI50: > 100 µM (inactive)
UACC-62
  GI50: > 100 µM (inactive)
MDA-N
  GI50: > 100 µM (inactive)
A498
  GI50: > 100 µM (inactive)
HCC 2998
  GI50: > 100 µM (inactive)
MDA-MB-435
  GI50: > 100 µM (inactive)
KM12
  GI50: > 100 µM (inactive)
SK-MEL-5
  GI50: > 100 µM (inactive)
DU-145
  GI50: > 100 µM (inactive)
SF-268
  GI50: > 100 µM (inactive)
NCI/ADR-RES
  GI50: > 100 µM (inactive)
NCI-H522
  GI50: > 100 µM (inactive)
SW-620
  GI50: > 100 µM (inactive)
NCI-H226
  GI50: > 100 µM (inactive)
Malme-3M
  GI50: > 100 µM (inactive)
SF-539
  GI50: > 100 µM (inactive)
SK-MEL-2
  GI50: > 100 µM (inactive)
MCF7
  GI50: > 100 µM (inactive)
OVCAR-5
  GI50: > 100 µM (inactive)
MDA-MB-231
  GI50: > 100 µM (inactive)
BT-549
  GI50: > 100 µM (inactive)
CCRF-CEM
  GI50: 61 µM (inactive)
HT-29
  GI50: > 100 µM (inactive)
UACC-257
  GI50: > 100 µM (inactive)
Hs-578T
  GI50: > 100 µM (inactive)
HOP-62
  GI50: > 100 µM (inactive)
SK-MEL-28
  GI50: > 100 µM (inactive)
NCI-H460
  GI50: > 100 µM (inactive)
ACHN
  GI50: > 100 µM (inactive)
U-251
  GI50: > 100 µM (inactive)
SF-295
  GI50: > 100 µM (inactive)
SN12C
  GI50: > 100 µM (inactive)
LOX IMVI
  GI50: > 100 µM (inactive)
CAKI-1
  GI50: > 100 µM (inactive)
MOLT-4
  GI50: > 100 µM (inactive)
COLO 205
  GI50: > 100 µM (inactive)
TK-10
  GI50: > 100 µM (inactive)
RXF 393
  GI50: > 100 µM (inactive)
786-0
  GI50: > 100 µM (inactive)
PC-3
  GI50: > 100 µM (inactive)
SNB-75
  GI50: > 100 µM (inactive)
OVCAR-3
  GI50: > 100 µM (inactive)
OVCAR-8
  GI50: > 100 µM (inactive)
RPMI-8226
  GI50: > 100 µM (inactive)
HOP-92
  GI50: > 100 µM (inactive)
HCT-15
  GI50: > 100 µM
T47D
  GI50: > 100 µM (inactive)
SR
  GI50: > 100 µM (inactive)

## CC[C@H](C)[C@H]1NC(=O)[C@@H](NC(=O)[C@@H](CC(C)C)N(C)C(=O)[C@@H]2CCCN2C(=O)C(C)=O)[C@@H](C)OC(=O)[C@H](Cc2ccc(OC)cc2)N(C)C(=O)[C@@H]2CCCN2C(=O)[C@H](CC(C)C)NC(=O)[C@H](C(C)C)OC(=O)C[C@@H]1O (Pyruvoyl-P[dNMeL]T[X40][Hiv]LP[NMeY](Me); ester 3-C)
SK-OV-3
  GI50: 0.00528 µM (active)
HL-60
  GI50: 0.05 µM (active)
HCT-116
  GI50: 0.00222 µM (active)
IGROV-1
  GI50: 0.00471 µM (active)
OVCAR-4
  GI50: 0.00562 µM (active)
NCI-H23
  GI50: 0.00455 µM (active)
EKVX
  GI50: 0.0031 µM (active)
M14
  GI50: 0.00269 µM (active)
SNB-19
  GI50: 0.00224 µM (active)
UO-31
  GI50: 0.01 µM (active)
K562
  GI50: 0.00353 µM (active)
A549
  GI50: 0.00454 µM (active)
UACC-62
  GI50: 0.00374 µM (active)
MDA-N
  GI50: 0.00467 µM (active)
A498
  GI50: 0.00538 µM (active)
HCC 2998
  GI50: 0.00261 µM (active)
MDA-MB-435
  GI50: 0.00485 µM (active)
KM12
  GI50: 0.00148 µM (active)
SK-MEL-5
  GI50: 0.00393 µM (active)
DU-145
  GI50: 0.00372 µM (active)
SF-268
  GI50: 0.00569 µM (active)
NCI/ADR-RES
  GI50: 0.226 µM (active)
NCI-H522
  GI50: 0.00547 µM (active)
SW-620
  GI50: 0.00505 µM (active)
NCI-H226
  GI50: 0.0159 µM (active)
Malme-3M
  GI50: 0.00538 µM (active)
SF-539
  GI50: 0.00361 µM (active)
SK-MEL-2
  GI50: 0.0047 µM (active)
MCF7
  GI50: 0.00232 µM (active)
OVCAR-5
  GI50: 0.00632 µM (active)
MDA-MB-231
  GI50: 0.0138 µM (active)
BT-549
  GI50: 0.00617 µM (active)
CCRF-CEM
  GI50: 0.00224 µM (active)
HT-29
  GI50: 0.00434 µM (active)
UACC-257
  GI50: 0.00594 µM (active)
Hs-578T
  GI50: 0.00476 µM (active)
HOP-62
  GI50: 0.0046 µM (active)
SK-MEL-28
  GI50: 0.005 µM (active)
NCI-H460
  GI50: 0.00429 µM (active)
ACHN
  GI50: 0.0203 µM (active)
U-251
  GI50: 0.00239 µM (active)
SF-295
  GI50: 0.00718 µM (active)
SN12C
  GI50: 0.0043 µM (active)
LOX IMVI
  GI50: 0.00428 µM (active)
CAKI-1
  GI50: 0.0581 µM (active)
MOLT-4
  GI50: 0.00423 µM (active)
COLO 205
  GI50: 0.00368 µM (active)
TK-10
  GI50: 0.00838 µM (active)
RXF 393
  GI50: 0.00383 µM (active)
786-0
  GI50: 0.00361 µM (active)
PC-3
  GI50: 0.0046 µM (active)
SNB-75
  GI50: 0.00482 µM (active)
OVCAR-3
  GI50: 0.00577 µM (active)
OVCAR-8
  GI50: 0.006 µM (active)
RPMI-8226
  GI50: 0.00545 µM (active)
HOP-92
  GI50: 0.0302 µM (active)
HCT-15
  GI50: 0.0252 µM
T47D
  GI50: 0.00404 µM (active)
SR
  GI50: 0.001 µM (active)

— ChEMBL document CHEMBL1201862, “PubChem BioAssay data set” (2004)
